How the values were obtained:
H146 cells (SCLC) = assay: In vitro IC90, H146 cells; format: cell-based; settings: Homo sapiens, NCI-H146, DT2216 alone
Protocol: (§1) Fig. 7 Mean Plasma concentration of DT2216 in 4 patients infused with DT2216 at 0.4 mg/kg over time against in vitro inhibitory concentration 90%(IC90) for various cell lines. SCLC – small cell lung cancer; OC- ovarian carcinoma; T-ALL – T cell acute lymphoblastic leukemia, CTCL – Cutaneous T cell lymphoma TEXT PRINTED IN THE PICTURE: DT2216: IC90 (≈ 1000 nM) for H146 cells (SCLC); IC90 (< 1000 nM) for OVCAR4 cells (OC); IC90 (≈ 500 nM) for MOLT-4 cells (T-ALL); IC90 (< 100 nM) for OVCAR4 cells (OC)* (*In combination with Carboplatin); IC90 (≈ 100 nM) for H146 cells (SCLC)** (**In combination with SN-38/irinotecan); IC90 (30 nM) for Myla cells (CTCL)

BCL-XL = tested on: BCL-XL; design: method as in PMID 31792461; settings: MOLT-4 T-ALL xenografts, after a single dosing; cited from earlier work
MOLT-4 cells (T-ALL) = assay: In vitro IC90, MOLT-4 cells; format: cell-based; settings: Homo sapiens
Protocol: as §1

OVCAR4 cells (OC) = assay: In vitro IC90, OVCAR4 cells; format: cell-based; settings: Homo sapiens, OVCAR-4, DT2216 alone
Protocol: as §1

SMILES: Cc1ncsc1-c1ccc([C@H](C)NC(=O)[C@@H]2C[C@@H](O)CN2C(=O)[C@@H](NC(=O)CCCCCC(=O)N2CCN(CC[C@H](CSc3ccccc3)Nc3ccc(S(=O)(=O)NC(=O)c4ccc(N5CCN(CC6=C(c7ccc(Cl)cc7)CCC(C)(C)C6)CC5)cc4)cc3S(=O)(=O)C(F)(F)F)CC2)C(C)(C)C)cc1 [DT2216]
- IC90 (H146 cells (SCLC)): ~1000 nM
- duration of BCL-XL degradation (BCL-XL): approximately 2 weeks
- IC90 (MOLT-4 cells (T-ALL)): ~500 nM
- IC90 (OVCAR4 cells (OC)): < 1000 nM
